According to PMC6628648, “Enabling microbial syringol conversion through structure-guided protein engineering” (Proceedings of the National Academy of Sciences of the …, 2019):

Experiments:
Assay in all cases: In vivo syringol conversion in shake flasks, 1H NMR of culture medium
Type in all cases: cell-based
[1] = tested on: Pseudomonas putida KT2440 strain AM156 expressing WT GcoAB; conditions: 20 mM glucose, 1 mM syringol
Protocol: (§1) A standard for 2-pyrone 6-carboxylate was not available; however, we did verify the presence of 2-pyrone 6-carboxylate using LC-MS-MS (SI Appendix, Fig. S15). While small amounts of pyrogallol, 3MC, and 2-pyrone 6-carboxylate were also observed with the WT GcoAB (AM156), nearly 60% of the original syringol remained after 6 h.
(§2) Strains used for shake flask experiments were grown overnight in LB media and resuspended the next day in M9 minimal media with 20 mM glucose, as described in SI Appendix. Cells were grown until they reached an OD600 of approximately 1, at which point syringol was added at a final concentration of 1 mM. ^1H NMR spectroscopy was used to analyze syringol consumption.
(§3) 572 nm was recorded by a Varioskan Lux microplate reader (Thermo Scientific). The absorbance was compared to a standard curve with 0-100 μM H2O2 to quantify the amount of peroxide produced in the reactions.
(§4) Purified protein was buffer exchanged into 10 mM HEPES pH 7.5 and concentrated to an A280 value of 12, as measured on a NanoDrop 2000 spectrophotometer (Thermo Fisher). Crystals of GcoA were grown with 2.4 M sodium malonate and 200 mM substrate, dissolved in 40% DMSO where necessary. Crystals were cryocooled directly in liquid N2 without further addition of cryoprotectants. […]
(§5) Strains evaluated in shake flask experiments were initially grown overnight in LB media with appropriate antibiotics from glycerol stocks and resuspended the following day in M9 minimal media (6.78 g/L Na2HPO4, 3 g/L KH2PO4, 0.5 g/L NaCl, 1 g/L NH4Cl, 2 mM MgSO4, 100 µM CaCl2, and 40 µM FeSO4 . 7H2O) supplemented with 20 mM glucose (Sigma-Aldrich) and […] kanamycin.
(§6) Cells were grown until they reached an OD600 of 1, at which point syringol (Sigma-Aldrich) was added to a final concentration of 1 mM. Syringol concentrations were quantified using any 1H NMR, and spectra were collected using a Bruker Avance III HD 400 MHz Spectrometer and analyzed using Bruker TopSpin3.7 software. For identification of unknown compounds, samples were analyzed via LC-MS-MS using the Acquity UPLC system (Waters Inc.). […]

[2] = tested on: Pseudomonas putida KT2440 strain AM157 expressing GcoA-F169A and GcoB; conditions: 20 mM glucose, 1 mM syringol
Protocol: as §1, §2, §3, §4, §5, §6

[3] = tested on: Pseudomonas putida KT2440 strain AM155 lacking GcoAB; conditions: AM155 (does not express GcoA), 1 mM syringol
Protocol: as §1, §2, §3, §4, §5, §6

COc1cccc(OC)c1O [syringol, 2,6-dimethoxyphenol]
original syringol remaining after 6 h [1]: ~60%
syringol 1H NMR peaks in culture medium after 6 h [2]: completely disappeared
syringol conversion after 6 h [3]: no conversion
